One test deals with bone marrow-derived DC. The experiment in a line: Cytokine and chemokine multiplex analysis of DC culture supernatant. The class given is cell-based. The following applies: DC culture media 48 hours after pulsing, versus native FR74. The method, then:
FIG. 14. […] Shown are the concentrations of cytokines within DC culture media 48 hours after pulsing with the indicated polypeptides. Each bar is the mean (±s.e.m.) of duplicates samples. A repeat experiment yielded similar results.
FIG. 15. […] Shown are the concentrations of chemokines within DC culture media 48 hours after pulsing with the indicated polypeptides. Each bar is the mean (±s.e.m.) of duplicate samples. A repeat experiment yielded similar results.
FIG. 24. Modified polypeptides induce different release of IL-6 and IL-12p70. Shown are the concentrations of IL-6 and IL-12p70 within DC culture media 48 hours after pulsing with the indicated polypeptides. Each bar is the mean (±s.e.m.) of duplicate samples. A repeat experiment yielded similar results. Values associate with each bar are the actual mean concentrations measured.
Another potential reason for the enhanced T cell activation is that epitope nesting results in enhancement of cytokines that facilitate the induction of T cell activation. […]
This hypothesis is tested using antibody neutralization. […] Cytokine levels in the sera are quantitated by analyzing 100 μL of each well on a Bio-Plex using Bio-Plex Manager software (ver.4.). […] Both the DC and the T cells can be assessed for expression of the receptors using flow cytometry. […]

The subject of the next test is ovarian tumor. The experiment in a line: Vaccination of ovarian tumor-bearing mice with native or nested epitope. Format: in vivo. Particulars: spleens and lymph nodes, day 50; FIGS. 32, 33. On the procedure: Each bar is the mean of three mice, each done in triplicate. P values, comparing FR74-specific responses, were calculated using Tukey-Kramer Multiple Comparisons test.
Each bar is the mean of 3 mice, each done in triplicate. P values, comparing FR74-specific responses or tumor weights, were calculated using Tukey-Kramer Multiple Comparisons test.
Mice were implanted with ovarian tumor and 10 days later were treated with PBS, native epitope FR74 (2150 μg/kg in 100 μL injected at the base of the tail), or nested epitope FR74.4 (5000 μg/kg in 100 μL injected at the base of the tail) over the course of a week. On day 50, the mice were sacrificed and spleen, lymph node, and tumor tissue was harvested. T cell responses and tumor weights were then estimated. The number of FR74-specific T cells in the spleens and lymph nodes was determined (FIG. 32). T cells were estimated using an IFN-γ ELIspot assay testing responses against native FR74 (black bars) or an irrelevant peptide (white bars). In addition, the proliferation of T cells, in response to native FR74 (black bars) or an irrelevant peptide (white bars), was measured in the spleens and lymph nodes (FIG. 33). T cell proliferation was estimated using a tritiated thymidine assay.
In addition, the weight of the greater omentum (a surrogate of total tumor burden) 50 days following last immunization was measured (FIG. 34C).

A further test deals with Foxp3^+ T cells. As to the kind of experiment: Flow cytometry of CD4 T cell lines for FoxP3 expression. The class given is cell-based, FVB/N mice. Particulars: FIG. 31. The text has this: FIG. 31. […] Flow cytometry dot plots of naïve splenocytes, FR74-specific, FR74.4-specific CD4 T cell lines evaluating for FoxP3 expression. Quadrants set at isotype signal, and the lower right quadrant is percent of total cells in lymphocyte gate. T cells were derived from FVB/N mice.

Entries after “also recorded” stand apart in the source; their conditions may differ. Where no end group is shown, it is not given here. [ ]: non-standard residue; d: D form. Ava = NCCCCC(=O)O

For “FR74.4: dual conjugated polypeptide: FR74 nested between Ii-key and DC3 (Ac-LRMK[Ava]KDISYLYRFNWNHCGRARRFYPSYHSTPQRP)”, the “cytokine release by DC” value in the test on bone marrow-derived DC (FIG. 14) was “selectively induces expression of IL-1α, IL-6, IL-12p70, IL-13 and TNF-α; also recorded: enhanced the release of IL-1α, IL-6, and IL-12p70”. For the same substance, the “chemokine levels produced by DC” value in the test on bone marrow-derived DC (FIG. 15) is “significantly higher levels of the T cell attracting chemokines, CCL7 (MCP-3), CCL1 (KC) CXCL10 (IP-10); also recorded: elevated levels of CCL7, CXCL1, and CXCL10”. Besides, the “immunogenicity as vaccine in tumor bearing mice (IFN-γ ELIspot and proliferation)” value in the test on ovarian tumor is “more immunogenic than native epitopes”. Further, in the test with Foxp3^+ T cells, the “expansion of Foxp3+ T cells” value is given as “blocks expansion of Foxp3^+ T cells”.

The values are drawn from patent US8858952B2, “Methods and materials for generating T cells” (Mayo Foundation for Medical Education and Research, priority 2009, dated 2014).
